# Source: patent US10751423B2 (Massachusetts Institute of Technology, priority 2016, dated 2020)
# pIC50: −log10 of the molar value. Non-standard residues stand in square brackets, D forms with d. Residues, ends and D or L forms follow the SMILES beside them. *: point of attachment. Dolaproine = CO[C@@H]([C@@H]1CCCN1)[C@@H](C)C(=O)O; Dil = CC[C@H](C)[C@H](NC)[C@@H](CC(=O)O)OC; X1 = C[C@@H](N*)[C@@H](O)c1ccccc1; NMeV = CN[C@H](C(=O)O)C(C)C
# Key:
# BCL-2 siRNA = assay: siRNA binding with various platinum species by MALDI-TOF-MS; conditions: 10-fold excess of platinum species
# Procedure: A single-stranded siRNA (UCAGGUACUCAGUCAUCCACATT) (SEQ ID NO: 3) was mixed with OxaPt(II) at a molar ratio of 1:10 in RNAase free water (RNA final concentration: 50 μM; Pt final concentration: 500 μM; total volume: 100 μL). The reaction mixture was placed in a 37° C. incubator and 10 μL of sample were removed at various time points to obtain MALDI-TOF-MS spectra (positive model). Analogous methods were employed to obtain spectra of the reaction products of siRNA with OxaPt(IV), CisPt(II) and CisPt(IV).
# MALDI/TOF MS was used to ascertain the kinetics of platinum-RNA adduct formation using BCL-2 siRNA that was incubated with a 10-fold excess of various platinum(II) or platinum(IV) species. […] AAS measurements of siRNA that had been isolated after co-incubation with various platinum species was conducted to determine the concentration of Pt-siRNA adducts formed over time.
# 5′-GMP = 5′-GMP binding with various platinum species by 1HNMR; conditions: 10 mM 5′-GMP, 5 mM Pt, 37° C.
# Procedure: (10 mM) 5′-GMP and (5 mM) OxaPt(II) were mixed in 700 μL of D2O/H2O (v/v=1:9), transferred to an NMR tube and placed in a 37° C. water bath for various time periods prior to ^1HNMR measurement. […] The binding kinetics of 5′-GMP to each platinum species were determined by measuring the relative amounts of free and Pt-bound 5′-GMP at each time point, integrating the ratio of the ^1HNMR peaks at 8.5 ppm to 8.09 ppm.
# OxaPt(II) and CisPt(II) are known to bind to guanine (G) and adenine (A) bases in both DNA and RNA. […] Formation of Pt-(5′-GMP)2 adducts were subsequently monitored by ESI-MS (FIG. 4A and FIG. 4B) and by MALDI/TOF MS (data not shown). Differences in the kinetics of adduct formation by various platinum(II) and platinum(IV) species were subsequently studied by ^1H NMR spectroscopy under similar conditions.
# [1] = photostability under continuous laser irradiation; assay type: physicochemical
# Text: FIG. 31D is a plot showing measurements of the photostability of various emissive components of core-shell nanoparticles under continuous irradiation. Note, the same excitation energies were utilized as in FIG. 31C; and, emission was detected using various excitation and emission filters. The photostability of DiR in THF (DiR in THF; black) was included for comparative purposes.
# In addition to the emission of these extrinsic reporters, bioluminescence due to the luciferaseluciferin reaction and RFP fluorescence upon 535 nm excitation are also included in FIG. 31C, generating a spectral comparison of all reporters that were subsequently utilized for in vivo and ex vivo imaging (vide infra). Prior to embarking on comparisons of in vivo imaging with different reporters, we examined the photostability of each of the emissive components within the core-shell nanoparticles.
# [2] = read-out: in vitro IC50; cited from earlier work
compound,measurement,setting,value
"N.N.[Cl][Pt][Cl] [CisPt(II), cisplatin]",time at which Pt-siRNA adducts could be detected,BCL-2 siRNA,≤ 30 m
"O=C1[O][Pt]2([NH][C@@H]3CCCC[C@H]3[NH]2)[O]C1=O [OxaPt(II), Oxaliplatin]",DACHPt(5′-GMP)2 adducts as share of the 5′-GMP pool,5′-GMP; 30 m incubation,approximately 10%
same,DACHPt(5′-GMP)2 adducts as share of the 5′-GMP pool,5′-GMP; 6 h incubation,> 40%
same,time at which Pt-siRNA adducts could be detected,BCL-2 siRNA,1 h
"CCCCCCCCCCCCCCCCCCN1C(=CC=CC=CC=CC2=[N+](CCCCCCCCCCCCCCCCCC)c3ccccc3C2(C)C)C(C)(C)c2ccccc21.[I-] [DiR, 1,1′-dioctadecyl-3,3,3′,3′-tetramethylindotricarbocyanine iodide]",initial emission intensity maintained,"[1]; DiR incorporated within the PCL shell of the nanoparticles, 1 h",88%
same,fluorescence decrease,"[1]; free DiR in THF, 1 h of continuous excitation",over 30%
"CC[C@H](C)[C@@H]([C@@H](CC(=O)N1CCC[C@H]1[C@H](OC)[C@@H](C)C(=O)N[C@H](C)[C@@H](O)c1ccccc1)OC)N(C)C(=O)[C@@H](NC(=O)[C@@H](NC)C(C)C)C(C)C [MMAE, monomethyl auristatin E] (H-[NMeV]V[Dil][Dolaproine]-X1)",pIC50,[2],9.22 to 9.70
